From US20260125376A1, “IRREVERSIBLE INACTIVATORS TARGETING ARAF/MEK COMPLEXES” (Dana-Farber Cancer Institute, Inc., priority 2022, published 2026) come the findings set out here.

In one test the target is ARAF/MEK protein complex (Homo sapiens, UniProt P10398+Q02750). Nature of the test: Mass spectrometry-based assay for covalent labeling of ARAF. The settings on record: ARAF/MEK protein complex incubated at room temperature for 2 hours with inhibitor at concentration ratio 1:10; LC-MS of denatured protein. Format: binding. As to the method:
Covalent labeling of ARAF by compounds of the invention was measured using a mass spectrometry-based assay. The ARAF/MEK protein complex was incubated at room temperature for 2 hours with desired inhibitors at a concentration ratio of 1:10. Following incubation, proteins were denatured in 8 M urea. Formic acid was added to a final 1% and desalted over C4 resin prior to LCMS analysis. Denatured proteins (10 μg per sample) were analyzed by LC-MS via a U3000 RSLC coupled to an Orbitrap Eclipse mass spectrometer (Thermo Scientific, Waltham, MA, USA). Proteins were eluted off a ES811A (Thermo Scientific, Waltham, MA, USA) 15-cm C4 column with a 5-50% gradient of MeCN in 1% FA. MS scans (range=600-2000 m/z) were obtained in the orbitrap at 120,000 resolution with 4 microscans. The Xtract function in Freestyle software (Thermo Scientific, Waltham, MA, USA) was used to deconvolute charge states averaged across the elution window. Fractional labeling of ARAF was measured by quantitating the unlabeled ARAF and ARAF shifted by the mass expected for formation of a covalent adduct of ARAF with the compound of interest.

In test [1] the target is T1, ARAF/14-3-3 chimera (residues 274-606 of human ARAF fused to human 14-3-3 epsilon) (Homo sapiens, UniProt P10398+Q02750, D190N/G300S/Y301D/Y302D).
T1 construct: residues 274-606 of human ARAF, including the kinase domain and complete C-terminal region; made in house; host or cells: Sf9 insect cells (baculovirus)
In words: TR-FRET-based kinase assay: inhibition of phosphorylation of MEK1 by ARAF. Type of test: biochemical. The settings on record: 250 nM MEK1(D190N), 75 nM ARAF/14-3-3 chimera, 30 minutes incubation with inhibitor, 200 μM ATP, 1 hour, HTRF. As to the method:
The ability of compounds of the invention to inhibit phosphorylation of MEK by ARAF was measured in a TR-FRET-based kinase assay using purified ARAF and MEK proteins. An active, chimeric ARAF protein was employed for this study. This ARAF protein included residues 274-606 of human ARAF, including the kinase domain and complete C-terminal region, fused to human 14-3-3 epsilon (ARAF/14-3-3 chimera). Amino acids corresponding to residues […] of human ARAF (with the sequence Ser-Gly-Tyr-Tyr) were mutated to Ser-Ser-Asp-Asp in this ARAF/14-3-3 chimera. […] In this assay, the ability of compounds of interest to inhibit phosphorylation of MEK1 by ARAF was measured by incubating 250 nM unphosphorylated full-length MEK1(D190N) with 75 nM ARAF/14-3-3 chimera and inhibitor of interest at a series of 12 concentrations (from 10 μM to 1.3 nM) for 30 minutes in reaction buffer (50 mM HEPES pH 7.0, 5 mM MgCl2, 1 mM MnCl2, 0.01% BSA, 2 mM TCEP, 0.1 mM NaVO4) at room temperature. Reactions were initiated by addition of 200 μM ATP and allowed to proceed for 1 hour. Reactions were quenched using detection buffer from HTRF-KinEASE kit (Cisbio). Signal was read with a PHERAstar plate reader (excitation=337 nm, emission=620 nm and 665 nm). IC50 values were determined using Graphpad Prism software from the 12 point concentration-response data using a three-parameter dose-response fit with the Hill slope constrained to −1.

Chain of ARAF/MEK protein complex (P10398 whole entry): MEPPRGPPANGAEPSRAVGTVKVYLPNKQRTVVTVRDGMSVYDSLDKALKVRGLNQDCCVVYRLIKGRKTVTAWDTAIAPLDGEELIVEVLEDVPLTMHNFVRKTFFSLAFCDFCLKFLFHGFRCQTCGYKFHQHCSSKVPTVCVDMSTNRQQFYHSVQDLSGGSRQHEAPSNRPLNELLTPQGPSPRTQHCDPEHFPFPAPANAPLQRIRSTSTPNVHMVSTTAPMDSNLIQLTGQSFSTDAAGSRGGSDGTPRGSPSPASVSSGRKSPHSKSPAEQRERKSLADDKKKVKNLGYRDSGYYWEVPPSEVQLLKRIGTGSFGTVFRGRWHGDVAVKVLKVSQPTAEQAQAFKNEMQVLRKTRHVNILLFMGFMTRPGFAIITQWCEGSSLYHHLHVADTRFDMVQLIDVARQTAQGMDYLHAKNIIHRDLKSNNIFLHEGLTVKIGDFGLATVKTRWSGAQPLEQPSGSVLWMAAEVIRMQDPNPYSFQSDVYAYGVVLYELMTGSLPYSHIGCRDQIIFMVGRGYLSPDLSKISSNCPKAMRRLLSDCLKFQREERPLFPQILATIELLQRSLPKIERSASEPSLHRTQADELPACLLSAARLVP
Chain of ARAF/MEK protein complex (Q02750 whole entry): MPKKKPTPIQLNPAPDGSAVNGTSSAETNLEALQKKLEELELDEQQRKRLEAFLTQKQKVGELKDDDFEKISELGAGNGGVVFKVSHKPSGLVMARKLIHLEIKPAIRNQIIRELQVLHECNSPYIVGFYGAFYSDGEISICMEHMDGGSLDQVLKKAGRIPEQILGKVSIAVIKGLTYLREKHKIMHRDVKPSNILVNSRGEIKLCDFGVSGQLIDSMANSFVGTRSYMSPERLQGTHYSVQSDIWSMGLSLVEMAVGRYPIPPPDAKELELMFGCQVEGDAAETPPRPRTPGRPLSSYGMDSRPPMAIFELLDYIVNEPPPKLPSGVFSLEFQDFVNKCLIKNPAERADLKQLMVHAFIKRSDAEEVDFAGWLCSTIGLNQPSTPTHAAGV
T1 sequence (P10398 274-606 G300S/Y301D/Y302D limits assumed): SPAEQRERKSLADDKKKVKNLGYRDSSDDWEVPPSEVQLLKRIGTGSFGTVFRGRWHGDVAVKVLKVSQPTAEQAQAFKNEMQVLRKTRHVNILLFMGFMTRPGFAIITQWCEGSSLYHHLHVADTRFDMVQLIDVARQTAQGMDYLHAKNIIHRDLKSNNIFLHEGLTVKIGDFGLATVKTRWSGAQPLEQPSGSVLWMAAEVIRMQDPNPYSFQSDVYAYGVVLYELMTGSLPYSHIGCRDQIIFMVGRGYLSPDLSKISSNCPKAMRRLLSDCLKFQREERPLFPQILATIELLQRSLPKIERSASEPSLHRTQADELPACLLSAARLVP
T1 sequence (Q02750 whole entry D190N, the tested form may be a part): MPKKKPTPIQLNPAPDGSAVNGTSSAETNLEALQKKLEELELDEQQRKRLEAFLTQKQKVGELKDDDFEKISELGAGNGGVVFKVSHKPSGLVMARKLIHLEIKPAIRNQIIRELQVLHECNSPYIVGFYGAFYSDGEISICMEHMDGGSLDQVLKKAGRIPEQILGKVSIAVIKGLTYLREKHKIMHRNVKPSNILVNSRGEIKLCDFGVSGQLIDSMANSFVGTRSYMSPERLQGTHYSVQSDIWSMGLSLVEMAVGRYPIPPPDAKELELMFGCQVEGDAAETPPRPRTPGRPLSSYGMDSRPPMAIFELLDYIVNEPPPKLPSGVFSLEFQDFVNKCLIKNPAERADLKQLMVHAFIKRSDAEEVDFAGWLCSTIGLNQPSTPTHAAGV

On to `Cc1c(Cc2ccc(NC(=O)CCl)cc2F)c(=O)oc2cc(Oc3ncccn3)ccc12` [Example 2, 2-Chloro-N-(3-fluoro-4-((4-methyl-2-oxo-7-(pyrimidin-2-yloxy)-2H-chromen-3-yl)methyl)phenyl)acetamide], for which, at ARAF/MEK protein complex, the “% labeling (covalent labeling of ARAF)” value came to 50%.
What is called IC50 is the concentration that inhibits the measured activity by half. Read a high IC50 as a need for much substance. As for `C=CC(=O)Nc1cccc(Cc2c(C)c3ccc(Oc4ncccn4)cc3oc2=O)c1F` [Example 3, N-(2-Fluoro-3-((4-methyl-2-oxo-7-(pyrimidin-2-yloxy)-2H-chromen-3-yl)methyl)phenyl)acrylamide], the “% labeling (covalent labeling of ARAF)” value at ARAF/MEK protein complex is on record as 85%. The molecule also registered a 50% inhibitory concentration (IC50) in test [1] of 0.13 µM.
On the same counts, the results for `Cc1c(Cc2cccc(NC(=O)CCl)c2F)c(=O)oc2cc(Oc3ncccn3)ccc12` [Example 4, 2-Chloro-N-(2-fluoro-3-((4-methyl-2-oxo-7-(pyrimidin-2-yloxy)-2H-chromen-3-yl)methyl)phenyl)acetamide] are 100% and 0.06 µM.
Consider `C=CC(=O)Nc1ccc(CNC(=O)c2ccc(F)c(F)c2Nc2ccc(I)cc2F)cc1` [Example 5, N-(4-Acrylamidobenzyl)-3,4-difluoro-2-((2-fluoro-4-iodophenyl)amino)benzamide], for which the “% labeling (covalent labeling of ARAF)” value on ARAF/MEK protein complex worked out at 10%.
As for `O=C(CCl)Nc1ccc(CNC(=O)c2ccc(F)c(F)c2Nc2ccc(I)cc2F)cc1` [Example 6, N-(4-(2-Chloroacetamido)benzyl)-3,4-difluoro-2-((2-fluoro-4-iodophenyl)amino)benzamide], at ARAF/MEK protein complex, the “% labeling (covalent labeling of ARAF)” value worked out at 40%.
Consider `C=CC(=O)Nc1ccc(CNC(=O)c2cc3c(ncn3C)c(F)c2Nc2ccc(Br)cc2Cl)cc1` [Example 7, N-(4-Acrylamidobenzyl)-5-((4-bromo-2-chlorophenyl)amino)-4-fluoro-1-methyl-1H-benzo[d]imidazole-6-carboxamide], for which, at ARAF/MEK protein complex, the “% labeling (covalent labeling of ARAF)” value amounted to 0%.
Same read-out and setting: in the case of `Cn1cnc2c(F)c(Nc3ccc(Br)cc3Cl)c(C(=O)NCc3ccc(NC(=O)CCl)cc3)cc21` [Example 8, 5-((4-Bromo-2-chlorophenyl)amino)-N-(4-(2-chloroacetamido)benzyl)-4-fluoro-1-methyl-1H-benzo[d]imidazole-6-carboxamide] it was 40%; in that of `C=CC(=O)Nc1ccc(Cn2cnc3c(F)c(Nc4ccc(Br)cc4Cl)c(C(=O)OC)cc32)cc1` [Example 9, Methyl 1-(4-acrylamidobenzyl)-5-((4-bromo-2-chlorophenyl)amino)-4-fluoro-1H-benzo[d]imidazole-6-carboxylate], 0%.
The same measure, in the same setting: to `COC(=O)c1cc2c(ncn2Cc2ccc(NC(=O)CCl)cc2)c(F)c1Nc1ccc(Br)cc1Cl` [Example 10, Methyl 5-((4-bromo-2-chlorophenyl)amino)-1-(4-(2-chloroacetamido)benzyl)-4-fluoro-1H-benzo[d]imidazole-6-carboxylate] belongs 75%.
On to `Cc1c(=O)n(C)c(Nc2ccc(I)cc2F)c2c(=O)n(C3CC3)c(=O)n(-c3cccc(NC(=O)CCl)c3)c12` [Example 11, 2-Chloro-N-(3-(3-cyclopropyl-5-((2-fluoro-4-iodophenyl)amino)-6,8-dimethyl-2,4,7-trioxo-3,4,6,7-tetrahydropyrido[4,3-d]pyrimidin-1(2H)-yl)phenyl)acetamide], for which the “% labeling (covalent labeling of ARAF)” value at ARAF/MEK protein complex amounted to 100%. This molecule also had a 50% inhibitory concentration (IC50) in test [1] of 0.49 µM.
On the same counts, the results for `C=C(F)C(=O)Nc1cccc(-n2c(=O)n(C3CC3)c(=O)c3c(Nc4ccc(I)cc4F)n(C)c(=O)c(C)c32)c1` [Example 12, N-(3-(3-Cyclopropyl-5-((2-fluoro-4-iodophenyl)amino)-6,8-dimethyl-2,4,7-trioxo-3,4,6,7-tetrahydropyrido[4,3-d]pyrimidin-1(2H)-yl)phenyl)-2-fluoroacrylamide] are 100% and 0.21 µM.
